For the data set, the system named is Phospholipidosis. Nature of the data set: Literature-mined public compounds from Kruhlak et al phospholipidosis modelling dataset.

On to `CO[C@@H]1[C@@H](OC(N)=O)[C@@H](O)[C@H](Oc2ccc3c(O)c(NC(=O)c4ccc(O)c(CC=C(C)C)c4)c(=O)oc3c2C)OC1(C)C` [NOVOBIOCIN], for which the Phospholipidosis entry is on record as “Negative: based on the absence of positive reported data from WMDD”.

For the molecule `CN(C)CCON=C1c2ccccc2CCc2ccccc21` [NOXIPTILINE], the Phospholipidosis result was “Positive: weak inducer based on presence of foamy macrophages and cytoplasmic vacuolations”.

Regarding `CC1COc2c(N3CCN(C)CC3)c(F)cc3c(=O)c(C(=O)O)cn1c23` (stereo unspecified) [OFLOXACIN], the Phospholipidosis result is recorded as “Negative: confirmed by electron microscopy”.

`Cc1cc2c(s1)Nc1ccccc1N=C2N1CCN(C)CC1` [OLANZAPINE]: the Phospholipidosis result is reported as “Negative: based on the absence of positive reported data from WMDD”.

Consider `O=C(O)c1cc(/N=N/c2ccc(O)c(C(=O)O)c2)ccc1O` [OLSALAZINE], for which the Phospholipidosis result is given as “Negative: based on the absence of positive reported data from WMDD”.

For the molecule `COc1ccc2[nH]c([S+]([O-])Cc3ncc(C)c(OC)c3C)nc2c1` (stereo unspecified) [OMEPRAZOLE], the Phospholipidosis entry is given as “Negative: based on the absence of positive reported data from WMDD”.

In the case of `OCCN1CCN(CCCN2c3ccccc3C=Cc3ccccc32)CC1` [OPIPRAMOL], the Phospholipidosis result was “Negative: based on the absence of positive reported data from WMDD”.

Consider `CC(C)NCC1CCc2cc(CO)c([N+](=O)[O-])cc2N1` (stereo unspecified) [OXAMNIQUINE], for which the Phospholipidosis result is “Negative: based on the absence of positive reported data from WMDD”.

Consider `C[C@]12COC(=O)C[C@@H]1CC[C@@H]1[C@@H]2CC[C@@]2(C)[C@H]1CC[C@]2(C)O` [OXANDROLONE], for which the Phospholipidosis entry was “Negative: based on the absence of positive reported data from WMDD”.

For `CC[N+]1(C)[C@@H]2CC(OC(=O)[C@H](CO)c3ccccc3)C[C@H]1[C@@H]1O[C@@H]12.[Br-]` (stereo partly specified) [OXITROPIUM BROMIDE], the Phospholipidosis result is “Negative: based on the absence of positive reported data from WMDD”.

`CCN(CC)CCc1nc(-c2ccccc2)no1` [OXOLAMINE]: the Phospholipidosis entry is recorded as “Negative: based on the absence of positive reported data from WMDD”.

For the molecule `CCn1cc(C(=O)O)c(=O)c2cc3c(cc21)OCO3` [OXOLINIC ACID], the Phospholipidosis result is “Negative: based on the absence of positive reported data from WMDD”.

`CN1CC[C@]23c4c5ccc(O)c4O[C@H]2C(=O)CC[C@@]3(O)[C@H]1C5` [OXYMORPHONE]: the Phospholipidosis result is “Negative: based on the absence of positive reported data from WMDD”.

As to `CC(C)(CO)[C@@H](O)C(=O)NCCC(=O)O` [PANTOTHENIC ACID], the Phospholipidosis result is listed as “Negative: based on the absence of positive reported data from WMDD”.

For the molecule `CCC1(C)OC(=O)N(C)C1=O` (stereo unspecified) [PARAMETHADIONE], the Phospholipidosis result was “Negative: based on the absence of positive reported data from WMDD”.

For `C#CCN(C)Cc1ccccc1` [PARGYLINE], the Phospholipidosis result is recorded as “Negative: based on the absence of positive reported data from WMDD”.

For `CCC(=O)c1ccc(O)cc1` [PAROXYPROPIONE], the Phospholipidosis entry is “Negative: based on the absence of positive reported data from WMDD”.

With `CC1(C)S[C@@H]2[C@H](NC(=O)COc3ccccc3)C(=O)N2[C@H]1C(=O)O` [PENICILLIN V], the Phospholipidosis entry is recorded as “Negative: based on the absence of positive reported data from WMDD”.

Consider `CCCC(C)C1(CC)C(=O)NC(=O)NC1=O` (stereo unspecified) [PENTOBARBITAL], for which the Phospholipidosis entry was “Negative: based on the absence of positive reported data from WMDD”.

With `CC(=O)CCCCn1c(=O)c2c(ncn2C)n(C)c1=O` [PENTOXIFYLLINE], the Phospholipidosis entry is given as “Negative: based on the absence of positive reported data from WMDD”.

For the molecule `CCCN1C[C@H](CSC)C[C@@H]2c3cccc4[nH]cc(c34)C[C@H]21` [PERGOLIDE], the Phospholipidosis result is “Negative: based on the absence of positive reported data from WMDD”.

For `C1CCC(C(CC2CCCCN2)C2CCCCC2)CC1` (stereo unspecified) [PERHEXILINE], the Phospholipidosis entry is on record as “Positive: strong inducer confirmed by electron microscopy”.

`CCC[C@H](N[C@@H](C)C(=O)N1[C@H](C(=O)O)C[C@@H]2CCCC[C@@H]21)C(=O)OCC` [PERINDOPRIL]: the Phospholipidosis result was “Negative: based on the absence of positive reported data from WMDD”.

Take `OCCN1CCN(CCCN2c3ccccc3Sc3ccc(Cl)cc32)CC1` [PERPHENAZINE]: the Phospholipidosis entry is “Negative: based on the absence of positive reported data from WMDD”.

As to `NC(=O)NC(=O)Cc1ccccc1` [PHENACEMIDE], the Phospholipidosis entry is given as “Negative: based on the absence of positive reported data from WMDD”.

As to `CCOc1ccc(NC(C)=O)cc1` [PHENACETIN], the Phospholipidosis entry is on record as “Positive: strong inducer confirmed by electron microscopy”.

Take `Nc1ccc(/N=N/c2ccccc2)c(N)n1` [PHENAZOPYRIDINE]: the Phospholipidosis result is reported as “Negative: based on the absence of positive reported data from WMDD”.

With `C[C@H]1[C@H](c2ccccc2)OCCN1C` [PHENDIMETRAZINE], the Phospholipidosis result is reported as “Negative: based on the absence of positive reported data from WMDD”.

On to `CC(Oc1ccccc1)C(=O)N[C@@H]1C(=O)N2[C@@H]1SC(C)(C)[C@@H]2C(=O)O` (stereo partly specified) [PHENETHICILLIN], for which the Phospholipidosis result is “Negative: based on the absence of positive reported data from WMDD”.

With `CN1CCC2=C(C1)C(c1ccccc1)c1ccccc12` (stereo unspecified) [PHENINDAMINE], the Phospholipidosis entry was “Negative: based on the absence of positive reported data from WMDD”.

`O=C1c2ccccc2C(=O)C1c1ccccc1` [PHENINDIONE]: the Phospholipidosis result was “Negative: based on the absence of positive reported data from WMDD”.

Take `CN(C)CCC(c1ccccc1)c1ccccn1` (stereo unspecified) [PHENIRAMINE]: the Phospholipidosis result was “Negative: based on the absence of positive reported data from WMDD”.

In the case of `CCC1(c2ccccc2)C(=O)NC(=O)NC1=O` [PHENOBARBITAL], the Phospholipidosis entry is “Negative: confirmed by electron microscopy”.

With `O=C1OC(c2ccc(O)cc2)(c2ccc(O)cc2)c2ccccc21` [PHENOLPHTHALEIN], the Phospholipidosis result is listed as “Negative: based on the absence of positive reported data from WMDD”.

For `CCC(c1ccccc1)c1c(O)c2ccccc2oc1=O` (stereo unspecified) [PHENPROCOUMON], the Phospholipidosis result was “Negative: based on the absence of positive reported data from WMDD”.

Take `CC(C)(N)Cc1ccccc1` [PHENTERMINE]: the Phospholipidosis entry is “Positive: weak inducer based on presence of foamy macrophages and cytoplasmic vacuolations”.

For `Cc1ccc(N(CC2=NCCN2)c2cccc(O)c2)cc1` [PHENTOLAMINE], the Phospholipidosis entry is listed as “Negative: based on the absence of positive reported data from WMDD”.

As to `CC[C@@H]1C(=O)OC[C@@H]1Cc1cncn1C` [PILOCARPINE], the Phospholipidosis result is listed as “Negative: based on the absence of positive reported data from WMDD”.

In the case of `CC(C)NCC(O)COc1cccc2[nH]ccc12` (stereo unspecified) [PINDOLOL], the Phospholipidosis result is “Negative: based on the absence of positive reported data from WMDD”.

As to `CC[N+]1(C)CCCC(OC(=O)C(O)(c2ccccc2)c2ccccc2)C1.[Br-]` (stereo unspecified) [PIPENZOLATE BROMIDE], the Phospholipidosis result was “Negative: based on the absence of positive reported data from WMDD”.

In the case of `CC(C(=O)O)c1ccc2c(c1)Cc1cccnc1O2` (stereo unspecified) [PRANOPROFEN], the Phospholipidosis entry is listed as “Negative: based on the absence of positive reported data from WMDD”.

Turning to `C[C@]12C=CC(=O)C=C1CC[C@@H]1[C@@H]2[C@@H](O)C[C@@]2(C)[C@H]1CC[C@]2(O)C(=O)COC(=O)CCC(=O)O` [PREDNISOLONE HEMISUCCINATE], the Phospholipidosis entry is on record as “Negative: based on the absence of positive reported data from WMDD”.

On to `CCCCC(=O)O[C@]1(C(=O)COC(C)=O)CC[C@H]2[C@@H]3CCC4=CC(=O)C=C[C@]4(C)[C@H]3[C@@H](O)C[C@@]21C` [PREDNISOLONE VALERATE ACETATE], for which the Phospholipidosis entry was “Negative: based on the absence of positive reported data from WMDD”.

For `CC(C)NC[C@H](O)COc1ccc(O)cc1` [PRENALTEROL], the Phospholipidosis entry is “Negative: based on the absence of positive reported data from WMDD”.

With `CC(Cc1ccccc1)NCCC(c1ccccc1)c1ccccc1` (stereo unspecified) [PRENYLAMINE], the Phospholipidosis result is “Positive: weak inducer based on presence of foamy macrophages and cytoplasmic vacuolations”.

As to `CCCN(CCC)S(=O)(=O)c1ccc(C(=O)O)cc1` [PROBENECID], the Phospholipidosis entry is “Negative: based on the absence of positive reported data from WMDD”.

In the case of `CCN(CC)CCNC(=O)c1ccc(N)cc1` [PROCAINAMIDE], the Phospholipidosis result is given as “Negative: confirmed by electron microscopy”.

Take `CCCN(CCC)C(=O)C(CCC(=O)O)NC(=O)c1ccccc1` (stereo unspecified) [PROGLUMIDE]: the Phospholipidosis result was “Negative: based on the absence of positive reported data from WMDD”.

Consider `CN(C)CCCN1c2ccccc2Sc2ccccc21` [PROMAZINE], for which the Phospholipidosis entry is “Positive: weak inducer based on presence of foamy macrophages and cytoplasmic vacuolations”.

On to `CC(CN1c2ccccc2Sc2ccccc21)N(C)C` (stereo unspecified) [PROMETHAZINE], for which the Phospholipidosis result was “Positive: weak inducer based on presence of foamy macrophages and cytoplasmic vacuolations”.

Turning to `CC(C)[N+](C)(CCOC(=O)C1c2ccccc2Oc2ccccc21)C(C)C.[Br-]` [PROPANTHELINE BROMIDE], the Phospholipidosis entry is “Negative: based on the absence of positive reported data from WMDD”.

For `CCC(=O)c1ccc2c(c1)N(CC(C)N(C)C)c1ccccc1S2` (stereo unspecified) [PROPIOMAZINE], the Phospholipidosis result is listed as “Negative: based on the absence of positive reported data from WMDD”.

Take `CCC(=O)O[C@](Cc1ccccc1)(c1ccccc1)[C@H](C)CN(C)C` [PROPOXYPHENE]: the Phospholipidosis entry was “Negative: based on the absence of positive reported data from WMDD”.

Consider `CC(C)NCC(O)COc1cccc2ccccc12` (stereo unspecified) [PROPRANOLOL], for which the Phospholipidosis entry is “Positive: weak inducer based on presence of foamy macrophages and cytoplasmic vacuolations”.

For the molecule `CCCOC(=O)c1ccc(O)cc1` [PROPYLPARABEN], the Phospholipidosis result is given as “Negative: based on the absence of positive reported data from WMDD”.

For the molecule `Cc1ccc2c(-c3ccccc3)nc(=O)n(C(C)C)c2c1` [PROQUAZONE], the Phospholipidosis entry is recorded as “Negative: based on the absence of positive reported data from WMDD”.
